From patent US11453674B2, “Heterocyclic compound, preparation method and use thereof in medicine” (SUZHOU SINOVENT PHARMACEUTICALS CO., LTD., priority 2019, dated 2022)

Assays:
hURAT1 = biological target: T1, hURAT1 (Homo sapiens, UniProt Q96S37); experiment: Inhibition of 14C-uric acid uptake by hURAT1 in HEK293-transfected cells; type: cell-based; conditions: HEK-293T cells stably expressing hURAT1, 14C-uric acid uptake, 5 min at 37° C.
T1 construct: expressed in transfected cells
T1 sequence (Q96S37 1-553): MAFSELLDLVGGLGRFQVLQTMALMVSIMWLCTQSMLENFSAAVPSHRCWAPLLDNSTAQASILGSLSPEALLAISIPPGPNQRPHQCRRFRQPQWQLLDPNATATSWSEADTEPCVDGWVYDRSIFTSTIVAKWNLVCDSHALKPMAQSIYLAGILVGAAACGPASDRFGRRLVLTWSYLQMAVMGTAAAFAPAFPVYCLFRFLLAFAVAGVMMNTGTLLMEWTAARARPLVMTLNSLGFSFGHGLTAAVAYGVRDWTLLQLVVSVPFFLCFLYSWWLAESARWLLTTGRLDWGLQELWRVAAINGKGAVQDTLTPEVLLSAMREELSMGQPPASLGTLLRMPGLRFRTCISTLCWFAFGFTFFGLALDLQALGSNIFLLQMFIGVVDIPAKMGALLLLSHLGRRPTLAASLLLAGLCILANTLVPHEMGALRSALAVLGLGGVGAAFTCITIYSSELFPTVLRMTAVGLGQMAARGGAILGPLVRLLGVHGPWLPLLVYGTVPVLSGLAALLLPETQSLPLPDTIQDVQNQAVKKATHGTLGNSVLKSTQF
Procedure: 1. Cell Culture and Inoculation
2) When the cells covered 80% of the culture medium, the culture medium was removed. The cells were washed with PBS once, followed by digestion with pancreatin-EDTA. After detachment, the cells were added with a culture medium, exfoliated by pipetting, and centrifuged for harvesting. The harvested cells were added with a culture medium and mixed well to give a cell suspension.
3) The cell density was adjusted to 3×10^5 cells/mL, transferred into a white-wall, clear-bottom, 96-well cell culture plate with 100 μL/well, and incubated for 12-24 h.
1) A 20 mM stock solution of the compound was prepared with DMSO. Then the stock solution was diluted to a starting concentration of 2 mM with DMSO.
2) The solution was serially 4-fold diluted with DMSO from […] to the 10th concentration on a 96-well plate serving as the 100× plate, and respective quality controls were prepared.
3) The solutions in corresponding wells were 10-fold diluted with Cl-free HBSS buffer on another 96-well plate serving as the 10× plate.
4) Buffer containing 0.1 μCi/mL ^14C-uric acid, at 45 μL/well, and a 10× diluted compound, at 5 μL/well, were added to a third 96-well plate serving as the 1× plate for later use. The concentration of DMSO was 1%.
3. Uptake of ^14C-Uric Acid in Cells Stably Expressing hURAT1
1) The uptake assay was performed after the cultivated cells in 96-well plates adhered.
2) The cells were washed once with pre-heated buffer at 200 μL/well.
3) After the wells were dried, corresponding compounds (50 μL/well) and 0.1 μCi/mL ^14C-uric acid were immediately added.
4) The plate with the compound was incubated in a 37° C. incubator for 5 min.
5) 150 μL of ice-cold buffer was added to each well to terminate the uptake. Each well was washed three times with buffer. The cells were carefully washed to avoid detachment.
6) 50 μL of lysis buffer was added to each well, prior to shaking at 900 rpm on an oscillator for 5 min.
7) 150 μL of scintillation solution (Microint 40) was added to each well before shaking at 900 rpm for 5 min.
8) Finally, the microwell plate was transferred to a MicroBeta Trilux (PerkinElmer Co. Ltd.) for detection.
The data were analyzed and the IC50 of the quality controls and all test compounds on the plates were calculated using XL-fit software.

[1] = Pharmacokinetics in male SD rats (i.v. and p.o.); type: in vivo; conditions: Sprague-Dawley (SD), rat, plasma, po, p.o. 10 mg/kg vs i.v. 1 mg/kg
Procedure: Example 29: Pharmacokinetics
Methodology for pharmacokinetics of compounds in rats:
1. Male SD rats were acclimatized in the animal room for 7 days after arrival.
2. Six SD rats were randomized into 2 groups, with 3 animals in each group. One group was administered by oral gavage (p.o.), and the other group was treated via tail vein injection (i.v.). Rats in the p.o. group were deprived of food overnight before administration.
3. After administration, about 200 μL of blood was collected from the orbital venous plexus at various time points.
4. The collected blood samples were centrifuged at 12000 rpm for 5 min at 4° C., and then the upper plasma samples were collected and preserved in a refrigerator at −20° C.
5. The procedures were summarized as follows:
6. LC-MS/MS (UPLC-MS/MS: liquid chromatography Waters Acquity UPLC (USA) and mass spectrometry 5500 Q Trap (Applied Biosystem/MDS SCIEX) or HPLC-MS\MS: liquid chromatography Agilent 1200 series (USA) and mass spectrometry API 4000 (Applied Biosystem/MDS SCIEX)) were used to determine the concentration of the compound in the plasma.
The pharmacokinetic parameters were calculated using the pharmacokinetic software WinNonlin [Model: Phoenix™ WinNonlin® 6.1; Manufacturer: Pharsight Corporation]. [Phoenix 1.1 User's Guide: p 251-p 300]

IC50 (hURAT1) [nM] | bioavailability [1] [%] | Structure (SMILES)
< 50 | – | CCc1nc2ncc(Br)cn2c1C(=O)c1cc(Br)c(O)c(Br)c1 [Example 3, (6-bromo-2-ethylimidazo[1,2-a]pyrimidin-3-yl)(3,5-dibromo-4-hydroxyphenyl)methanone]
< 50 | > 30 | CCc1nc2ncc(C(F)(F)F)cn2c1C(=O)c1cc(Br)c(O)c(Br)c1 [Example 5, (3,5-dibromo-4-hydroxyphenyl)(2-ethyl-6-(trifluoromethyl)imidazo[1,2-a]pyrimidin-3-yl)methanone]
< 50 | – | CCc1nc2ncc(Cl)cn2c1C(=O)c1cc(Br)c(O)c(Br)c1 [Example 6, (6-chloro-2-ethylimidazo[1,2-a]pyrimidin-3-yl)(3,5-dibromo-4-hydroxyphenyl)methanone]
50 to 200 | – | CCc1nc2cc(C(F)(F)F)ncn2c1C(=O)c1cc(Br)c(O)c(Br)c1 [Example 7, (3,5-dibromo-4-hydroxyphenyl)(2-ethyl-7-(trifluoromethyl)imidazo[1,2-c]pyrimidin-3-yl)methanone]
< 50 | > 30 | CCc1nc2ncccn2c1C(=O)c1cc(Br)c(O)c(Br)c1 [Example 20, 2,6-dibromo-4-([2-ethylimidazo[1,2-a]pyrimidin-3-yl]carbonyl) phenol]
< 50 | > 30 | CCc1nc2cc(Cl)ncn2c1C(=O)c1cc(Br)c(O)c(Br)c1 [Example 21, (7-chloro-2-ethylimidazo[1,2-f]pyrimidin-3-yl)(3,5-dibromo-4-hydroxyphenyl)methanone]
50 to 200 | – | CCc1nc2ncccn2c1C(=O)c1cc(Br)c(O)c(C(F)(F)F)c1 [Example 23, (3-bromo-4-hydroxy-5-(trifluoromethyl)phenyl)(2-ethylimidazo[1,2-a]pyrimidin-3-yl)methanone]

Structure (SMILES) | IC50 (hURAT1) [nM] | bioavailability [1] [%]
CCc1nc2ncc(F)cn2c1C(=O)c1cc(Br)c(O)c(Br)c1 [Example 4, (3,5-dibromo-4-hydroxyphenyl)(2-ethyl-6-fluoroimidazo[1,2-a]pyrimidin-3-yl)methanone] | < 50 | > 30
CCn1nc2ccc(F)cc2c1C(=O)c1cc(Br)c(O)c(Br)c1 [Example 9, (3,5-dibromo-4-hydroxyphenyl)(2-ethyl-5-fluoro-2H-indazol-3-yl) methanone] | 50 to 200 | –
CCc1nc2ncc(F)cn2c1C(=O)c1cc(Br)c(O)c(C#N)c1 [Example 14, 3-bromo-5-(2-ethyl-6-fluoroimidazo[1,2-a]pyrimidine-3-carbonyl)-2-hydroxybenzonitrile] | 50 to 200 | > 30
CCn1nc2ccncc2c1C(=O)c1cc(Br)c(O)c(Br)c1 [Example 16, (3,5-dibromo-4-hydroxyphenyl)(2-ethyl-2H-pyrazolo[4,3-c]pyridin-3-yl)methanone] | < 50 | –
CCc1nc2ncc(F)cn2c1C(=O)c1cc(Br)c(O)c(C(F)(F)F)c1 [Example 18, (3-bromo-4-hydroxy-5-(trifluoromethyl)phenyl)(2-ethyl-6-fluoroimidazo[1,2-a]pyrimidin-3-yl)methanone] | < 50 | –
CCc1nc2ncccn2c1C(=O)c1cc(Br)c(O)c(C#N)c1 [Example 22, 3-bromo-5-(2-ethylimidazo[1,2-a]pyrimidine-3-carbonyl)-2-hydroxybenzonitrile] | 200 to 500 | –
